# Measurements taken from patent USRE31588E, “Imidazolylmethylthioethyl alkynyl guanidines” (Bristol-Myers Company, priority 1981, dated 1984).
# Entries after “also recorded” stand apart in the source; their conditions may differ.
# Experiments:
# [1] = in vivo, cited from earlier work
# gastric secretion = settings: cited from earlier work
# H2 receptor = settings: cited from earlier work
# gastric acid output [2] = test: Gastric antisecretory activity in the gastric fistula dog (histamine-induced); assay type: in vivo, dog (beagle); settings: for Onset of inhibitory effect on gastric acid output: iv
# Protocol: Thomas type [Thomas, J. E., Proc. Soc. exp. Biol. Med., 46, 260 (1941)] stainless steel cannulae are inserted into the stomachs of beagle dogs (10-12 kg.) just orad to the pyloric gland area near the greater curvature to provide a chronic gastric fistula. Animals are allowed to recover for at least two months before any testing is done. Dogs are fasted overnight (~18 hours) with water ad lib prior to each experiment. The dogs are placed in a sling and an eight inch inside needle catheter (C. R. Baird, Inc.) with a 2 inch 17 gauge needle is inserted into a leg vein fior purposes of drug administration. Gastric secretions are collected every 15 minutes by gravity drainage from the opened cannula. […] A modification of the procedure described by Grossman and Konturek, Gastroenterology, 66, 517 (1974) was followed. […] Each 15 minute sample of gastric juice is measured to the nearest 0.5 ml. and titratable acidity against 0.02N NaOH (endpoint pH 7.0) is measured with an Autoburet and pH meter (radiometer). The percent inhibition of acid output is calculated as described in the pylorus ligated rat procedure.
# [3] = clinical; cited from earlier work
# [4] = target: T1, histamine H2-receptors (isolated, spontaneously beating guinea pig right atria) (Cavia porcellus, UniProt P47747); test: Histamine H2-receptor antagonism, isolated guinea pig atria assay; assay type: cell-based; design: The spontaneously beating right atrium was dissected free from other tissues; from tissue; host or cells: isolated, spontaneously beating right atrium of male Hartley guinea pigs; settings: for Histamine ED50 (concentration of histamine which increased contractile rate 50% of maximum) after test compound: test compound 1 × 10^-5 M, 30 minute incubation
# T1 sequence (P47747 whole entry): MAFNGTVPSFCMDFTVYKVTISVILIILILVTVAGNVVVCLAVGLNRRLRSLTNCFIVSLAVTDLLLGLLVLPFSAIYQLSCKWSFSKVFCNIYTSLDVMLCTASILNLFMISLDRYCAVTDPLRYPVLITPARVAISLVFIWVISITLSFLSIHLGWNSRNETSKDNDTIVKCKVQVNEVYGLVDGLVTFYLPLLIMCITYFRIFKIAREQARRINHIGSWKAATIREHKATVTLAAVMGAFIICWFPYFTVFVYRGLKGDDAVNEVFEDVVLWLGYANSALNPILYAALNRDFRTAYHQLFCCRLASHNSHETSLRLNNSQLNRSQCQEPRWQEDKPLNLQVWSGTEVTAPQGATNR
# Protocol: Subsequent investigations by Hughes and Coret, Proc. Soc. […] Black et al., Agents and Actions, 3, 133 (1973) and Brimblecombe et al., Fed. […] The present comparative studies were carried out using a modification of the procedure reported by Reinhardt et al., Agents and Actions, 4, 217 (1974).
# Male Hartley strain guinea pigs (350-450 gm.) were sacrificed by a blow on the head. The heart was excised and placed in a Petri dish of oxygenated (95% O2, 5% CO2) modified Krebs solution (g./liter: NaCl 6.6, KCl 0.35, MgSO4. 7 H2 O 0.295, KH2 PO4 0.162, CaCl2 0.238, NaHCO3 2.1 and dextrose 2.09). The spontaneously beating right atrium was dissected free from other tissues and a silk thread (4-0) attached to each end. The atrium was suspended in a 20 ml. muscle chamber containing oxygenated modified Krebs solution maintained at 32° C. Atrial contractions were recorded isometrically by means of a Grass FT 0.03 force displacement transducer and recordings of contractile force and rate were made with a Beckman RP Dynograph.
# A resting tension of 1 g. was applied to the atrium and it was allowed to equilibrate for 1 hour.
# Concentration-response curve displacement factors were calculated as follows: [formula] The factor obtained for BL-5641 was then expressed as a ratio of the factor obtained for cimetidine. [formula]
# peptic ulcer disease = settings: Gray et al., Lancet 1977; cited from earlier work
# [5] = target: T1, histamine H2-receptors (isolated, spontaneously beating guinea pig right atria); settings: cited from earlier work
# gastric acid output [6] = test: Gastric antisecretory activity in the two hour pylorus ligated (Shay) rat; assay type: in vivo, rat (male Long Evans); settings: vs cimetidine
# Source text: The pyloric ligation procedure in the rat was designed by Shay et al., Gastroenterology, 5, 53 (1945) for the study of perforating gastric ulcers; however, as the method became known, it was also employed as a means of studying rat gastric secretion, Shay et al., Gastroenterology, 26, 906 (1954), Brodie, D. A., Am. J. Dig. […] A modification of this procedure is presently used to evaluate compounds for gastric antisecretory activity.
# Male Long Evans rats, 280-300 gm., are used. The animals are placed in individual cages and fasted for 24 hours with free access to water. Under ether anesthesia, the stomach is reached through a midline incision, and a cotton-thread ligature is placed around the pylorus. After wound closure, ether administration is stopped and either BL-5641, cimetidine or vehicle are administered intraperitoneally in a volume of […]. BL-5641 and cimetidine are solubilized with one equivalent of HCl and brought to the proper volume with water. The animals are returned to their cages from which the water bottles have been removed and two hours later are sacrificed with ether. […] Titratable acid output is calculated in microequivalents by multiplying the volume in milliliters by the acid concentration in milliequivalents per liter. The percent inhibition of acid output is calculated as follows [formula]
smiles,measurement,setting,value
CNC(=S)NCCCCc1cnc[nH]1 [Burimamide],Oral absorption,[1]; po,oral absorption is poor
same,Inhibition of gastric secretion,gastric secretion; animals and man,inhibits gastric secretion in animals and man
same,Clinical effectiveness as H2 receptor antagonist,gastric secretion; clinical,first clinically effective H2 receptor antagonist
same,Mode of antagonism at histamine H2-receptors,"H2 receptor; Black et al., Nature 1972",competitive antagonist
CNC(=NC#N)NCCSCc1[nH]cnc1C [Cimetidine],Onset of inhibitory effect on gastric acid output,gastric acid output [2],immediate inhibitory effect on gastric acid output
same,Agranulocytosis,[3],without producing agranulocytosis
same,Histamine ED50 (concentration of histamine which increased contractile rate 50% of maximum) after test compound,[4],1.39 µg/mL
same,Half-life,[1],relatively short
same,Effectiveness in treatment of peptic ulcer disease,peptic ulcer disease,effective therapeutic agent in the treatment of peptic ulcer disease
same,H2 antagonist potency/effectiveness,H2 receptor,as effective an H2 antagonist as metiamide
CNC(=S)NCCSCc1[nH]cnc1C [Metiamide],Agranulocytosis,[3],toxicity (agranulocytosis)
same,Oral activity,gastric secretion; man,orally active in man
same,H2 antagonist potency/effectiveness,H2 receptor,more potent than burimamide
NCCc1c[nH]cn1 [Histamine],Effect on contractile rate of guinea pig right atria,[5],concentration-related increases in the contractile rate
same,Histamine concentration at which maximal response occurred,[4]; cumulative histamine addition,30 µM
"C#CCN=C(NC#N)NCCSCc1[nH]cnc1C [BL-5641, N-Cyano-N'-{2-[(4-methyl-5-imidazolyl)methylthio]ethyl}-N""-propargylguanidine]",Duration of activity,"gastric acid output [2]; equal doses, vs cimetidine",longer duration of activity than cimetidine
same,Degree and duration of inhibition,"gastric acid output [2]; equimolar doses, vs cimetidine",consistently greater and of longer duration with BL-5641 than with cimetidine
same,Onset of inhibitory effect on gastric acid output,gastric acid output [2],immediate inhibitory effect on gastric acid output
same,Potency as inhibitor of gastric secretion,gastric acid output [2]; vs cimetidine,more potent and/or longer acting than cimetidine; also recorded: more potent than cimetidine
same,Potency as histamine H2-receptor antagonist,"[4]; isolated guinea pig atria, vs cimetidine",more potent than cimetidine
same,Histamine ED50 (concentration of histamine which increased contractile rate 50% of maximum) after test compound,[4],12.44 µg/mL
same,Potency for inhibition of gastric acid output,gastric acid output [6],more potent than cimetidine; also recorded: at least as potent as cimetidine
